Assay results published in US20250163048A1 (Tango Therapeutics, Inc., priority 2022, published 2025).

Key:
[1] = test system: HAP1 MTAP-intact cell line; assay: SDMA in-cell western assay, HAP1 MTAP-intact; settings: Homo sapiens, HAP1, read-out: Hap1 MTAP intact IC50, SDMA in-cell western, HAP1 MTAP-intact cell line
MTAP-deleted cell line = assay: viability assay for the MTAP-deleted cell line; format: cell-based; settings: Homo sapiens, HAP1, viability assay
[2] = test system: HAP1 MTAP-deleted cell line; assay: SDMA in-cell western assay, HAP1 MTAP-deleted; settings: for IC50 / IC90: Homo sapiens; for IC50: HAP1, read-out: Hap1 MTAP deleted IC50, SDMA in-cell western, HAP1 MTAP-deleted cell line; for IC90: HAP1, read-out: Hap1 MTAP deleted IC90, SDMA in-cell western, HAP1 MTAP-deleted cell line; for Hap1 MTAP intact/deleted ratio: IC50 ratio between HAP1 MTAP-intact and HAP1 MTAP-deleted cell line, SDMA in-cell western

Row | SMILES | IC50 [1] [nM] | IC50 (MTAP-deleted cell line) [nM] | IC50 [2] [nM] | IC90 [2] [nM] | Hap1 MTAP intact/deleted ratio [2]
1 | C[C@H]1CC[C@H]([C@H]2CCCOC2)N(C(=O)C(=O)Nc2cnc(N)c3cn[nH]c23)C1 (mixture of isomers) [Compound 140, N-(4-amino-1H-pyrazolo[4,3-c]pyridin-7-yl)-2-((2R,5S)-5-methyl-2-(rac-(R)-tetrahydro-2H-pyran-3-yl)piperidin-1-yl)-2-oxoacetamide] | > 50 | 100 to 1000 | 5 to 50 | > 125 | A (“A” indicates an IC50 ratio greater than or equal to 30 fold)
2 | C[C@@H]1CC[C@@H](c2ccc3cnccc3c2)N(C(=O)C(=O)Nc2cnc(N)c3cn[nH]c23)C1 (racemic) [Compound 22, rac-N-(4-amino-1H-pyrazolo[4,3-c]pyridin-7-yl)-2-((2R,5S)-2-(isoquinolin-6-yl)-5-methylpiperidin-1-yl)-2-oxoacetamide] | 5 to 50 | < 100 | < 5 | < 75 | C (“C” indicates an IC50 ratio of less than 15 fold)
3 | C[C@@H]1CC[C@@H](c2ccnn2C)N(C(=O)C(=O)Nc2cnc(N)c3cn[nH]c23)C1 (racemic) [Compound 115, N-(4-amino-1H-pyrazolo[4,3-c]pyridin-7-yl)-2-(rac-(2S,5R)-5-methyl-2-(1-methyl-1H-pyrazol-5-yl)piperidin-1-yl)-2-oxoacetamide] | > 50 | < 100 | < 5 | < 75 | A (“A” indicates an IC50 ratio greater than or equal to 30 fold)
4 | CC(Cc1nc2cc([C@H]3CC[C@H](C)CN3C(=O)C(=O)Nc3ccn4ccnc4c3)ccc2s1)N1CCCC1 (mixture of isomers) [Compound 133, N-(imidazo[1,2-a]pyridin-7-yl)-2-((2R,5S)-5-methyl-2-(2-(2-(pyrrolidin-1-yl)propyl)benzo[d]thiazol-5-yl)piperidin-1-yl)-2-oxoacetamide] | > 50 | < 100 | < 5 | 75 to 125 | A (“A” indicates an IC50 ratio greater than or equal to 30 fold)
5 | C[C@H]1CC[C@H](c2ccc3scnc3c2)N(C(=O)C(=O)Nc2cncc3c(N)n[nH]c23)C1 (racemic) [Compound 139, N-(3-amino-1H-pyrazolo[4,3-c]pyridin-7-yl)-2-oxo-2-[rac-(2R,5S)-2-(1,3-benzothiazol-5-yl)-5-methyl-1-piperidyl]acetamide] | > 50 | 100 to 1000 | 5 to 50 | > 125 | A (“A” indicates an IC50 ratio greater than or equal to 30 fold)
6 | C[C@H]1CC[C@H](c2ccc3cn(C4CCOC4)nc3c2)N(C(=O)C(=O)Nc2cncc3cn[nH]c23)C1 (mixture of isomers) [Compound 148, 2-oxo-N-(1H-pyrazolo[4,3-c]pyridin-7-yl)-2-[rac-(2R,5S)-5-methyl-2-(2-tetrahydrofuran-3-ylindazol-6-yl)-1-piperidyl]acetamide] | > 50 | 100 to 1000 | 5 to 50 | 75 to 125 | B (“B” indicates an IC50 ratio greater than or equal to 15 fold but lower than 30 fold)
7 | C[C@@H]1CC[C@@H](c2cc(Cl)cc(Cl)c2)N(C(=O)C(=O)Nc2cnc(N)c3cn[nH]c23)C1 (racemic) [Compound 161, N-(4-amino-1H-pyrazolo[4,3-c]pyridin-7-yl)-2-(rac-(2S,5R)-2-(3,5-dichlorophenyl)-5-methylpiperidin-1-yl)-2-oxoacetamide] | > 50 | < 100 | < 5 | < 75 | A (“A” indicates an IC50 ratio greater than or equal to 30 fold)
